Measured values as given in ChEMBL document CHEMBL2046426, “Neo-clerodane diterpenes from Salvia herbacea” (J Nat Prod, 2012).
The source made the active and inactive calls. No cut-off for these calls is given here.

Legend:
Mus musculus [1] = test: Antiinflammatory activity in CD-1 mouse assessed as inhibition of TPA-induced ear edema at 0.1 to 1.0 uM applied topically 10 mins before compound challenge measured after 4 hrs; type: functional, organism-based
Mus musculus [2] = test: Antiinflammatory activity in CD-1 mouse assessed as inhibition of TPA-induced ear edema applied topically 10 mins before compound challenge measured after 4 hrs; type: functional, organism-based; conditions: CD-1, Ear
SK-LU-1 = test: Cytotoxicity against human SKLU1 cells after 48 hrs by SRB assay; type: functional, cell-based; conditions: SK-LU-1, 48 h
U-251 = test: Cytotoxicity against human U251 cells after 48 hrs by SRB assay; type: functional, cell-based; conditions: U-251, 48 h

For `COc1ccc2c(c1)c(CC(=O)O)c(C)n2C(=O)c1ccc(Cl)cc1`, the inhibition (Mus musculus [1]) was “Active”.
`C[C@]12C[C@H](c3ccoc3)OC(=O)[C@@]1(O)CC[C@@]13COC(=O)C1=CC[C@H]1O[C@]132` [TEHUANINE G] showed an IC50 (Mus musculus [2]) of 0.24 µmol/ear.
Work on `C[C@]12C[C@H](c3ccoc3)OC(=O)[C@@H]1[C@H](O)C[C@@]13COC(=O)C1=CC[C@H]1O[C@]132` [TEHUANINE F] yielded an IC50 (SK-LU-1) of 38.9 µM and an IC50 (U-251) of 41.9 µM.
